tested on: ADP induced platelet aggregation; assay: Light transmission platelet aggregation assay; format: cell-based; details: human platelet-rich plasma; ADP at 1-5 μM final concentration; 2 minutes preincubation at 37° C.
Experimental: After obtaining informed consent, blood was obtained by vein puncture from healthy volunteers using a thrombin inhibitor as the anticoagulant. Platelet-rich plasma (PRP) was removed after centrifugation at 20° C. for 10 minutes at 200 g and allowed to equilibrate at 37° C. Part of the blood was centrifuged for 10 minutes at 5000 g to yield platelet poor plasma (PPP).
Light transmission platelet aggregation was carried out according to the method of Born & Cross (G. V. R. Born and M. J. Cross, J. Physiol. (1963), 168, 178-195) using a Chronolog lumiaggregometer with stirring (1000 rpm) at 37° C. PRP was placed into the cuvette and allowed to equilibrate at 37° C. for two minutes. In a first phase, the ADP concentration to give optimal extent of aggregation was determined for the PRP of each donor. In a second phase, PRP was incubated with inhibitors for 2 minutes at 37° C. prior to the addition of the agonist ADP at 1-5 μM final concentration. The change in light transmission, indicative of ongoing aggregation, was monitored during 5 minutes. The extent of platelet aggregation was calculated relative to light absorbance of PRP (not aggregated) and PPP (full aggregation).

| IC50 [µM] | SMILES |
| --- | --- |
| 0.01 | CCOC(=O)N1CCN(C(=O)[C@H](CP(=O)(O)O)NC(=O)c2cc(N3CC[C@H](OC)C3)nc(-c3ccccc3)n2)CC1 [Example 1, 4-((R)-2-{[6-((S)-3-methoxy-pyrrolidin-1-yl)-2-phenyl-pyrimidine-4-carbonyl]-amino}-3-phosphono-propionyl)-piperazine-1-carboxylic acid ethyl ester] |
| 0.008 | CCCCOC(=O)N1CCN(C(=O)[C@H](CP(=O)(O)O)NC(=O)c2cc(N3CC[C@H](OC)C3)nc(-c3ccccc3)n2)CC1 [Example 2, 4-((R)-2-{[6-((S)-3-methoxy-pyrrolidin-1-yl)-2-phenyl-pyrimidine-4-carbonyl]-amino}-3-phosphono-propionyl)-piperazine-1-carboxylic acid butyl ester] |
| 0.021 | CCOC(=O)N1CCN(C(=O)[C@H](CCP(=O)(O)O)NC(=O)c2cc(N3CC[C@H](OC)C3)nc(-c3ccccc3)n2)CC1 [Example 4, 4-((S)-2-{[6-((S)-3-methoxy-pyrrolidin-1-yl)-2-phenyl-pyrimidine-4-carbonyl]-amino}-4-phosphono-butyryl)-piperazine-1-carboxylic acid ethyl ester] |
| 0.021 | CCCCOC(=O)N1CCN(C(=O)[C@H](CCC(=O)O)NC(=O)c2cc(N3CC[C@H](OC)C3)nc(-c3ccccc3)n2)CC1 [reference compound] |
| 0.032 | CCOC(=O)N1CCN(C(=O)[C@H](CCC(=O)O)NC(=O)c2cc(N3CC[C@H](OC)C3)nc(-c3ccccc3)n2)CC1 [reference compound] |
| 0.091 | CCCCOC(=O)N1CCN(C(=O)[C@H](CC(=O)O)NC(=O)c2cc(N3CC[C@H](OC)C3)nc(-c3ccccc3)n2)CC1 [reference compound] |
| 0.138 | CCOC(=O)N1CCN(C(=O)[C@H](CC(=O)O)NC(=O)c2cc(N3CC[C@H](OC)C3)nc(-c3ccccc3)n2)CC1 [reference compound] |

Second part, the compound before the results:

| SMILES | IC50 [µM] |
| --- | --- |
| CCCCOC(=O)N1CCN(C(=O)[C@H](CCP(=O)(O)O)NC(=O)c2cc(N3CC[C@H](OC)C3)nc(-c3ccccc3)n2)CC1 [Example 5, 4-((S)-2-{[6-((S)-3-methoxy-pyrrolidin-1-yl)-2-phenyl-pyrimidine-4-carbonyl]-amino}-4-phosphono-butyryl)-piperazine-1-carboxylic acid butyl ester] | 0.001 |
| CCOC(=O)N1CCN(C(=O)[C@H](Cc2ccc(P(=O)(O)O)cc2)NC(=O)c2cc(N3CC[C@H](OC)C3)nc(-c3ccccc3)n2)CC1 [Example 59, 4-[(S)-2-{[6-((S)-3-Methoxy-pyrrolidin-1-yl)-2-phenyl-pyrimidine-4-carbonyl]-amino}-3-(4-phosphono-phenyl)-propionyl]-piperazine-1-carboxylic acid ethyl ester] | 0.004 |
| CCOC(=O)N1CCN(C(=O)[C@H](Cc2ccc(C(=O)O)cc2)NC(=O)c2cc(N3CC[C@H](OC)C3)nc(-c3ccccc3)n2)CC1 [reference compound] | 0.226 |

target: T1, human P2Y12 receptor (Homo sapiens, UniProt Q9H244); assay: P2Y12 receptor binding assay; details: CHO cells with recombinant human P2Y12 receptor; tritium-labeled 2-methyl-S-ADP; 2 hours at RT
T1 construct: expressed in transfected cells; host or cells: Chinese Hamster Ovary (CHO) cells
Experimental: Chinese Hamster Ovary (CHO) cells with recombinant expression of the human P2Y12 receptor were cultured in 24 well cell-culture plates. Cells were washed three times with binding buffer (50 mM Tris pH 7.4, 100 mM NaCl, […], 0.5% BSA). The cells were then incubated with 0.5 ml per well binding buffer containing tritium-labeled 2-methyl-thio-adenosine 5′-diphosphate (2-methyl-S-ADP) (between 100,000 and 300,000 dpm per well) and various concentrations of test compounds. After incubation at RT for 2 hours, cells were washed three times with binding buffer. Then, cells were solubilized by addition of 0.5 ml solubilization buffer (SDS, NaOH, EDTA). The content of each well was then transferred into beta-counter vials and 2.0 ml of Ultima Gold Scintillation liquid was added.

T1 sequence (Q9H244 whole entry): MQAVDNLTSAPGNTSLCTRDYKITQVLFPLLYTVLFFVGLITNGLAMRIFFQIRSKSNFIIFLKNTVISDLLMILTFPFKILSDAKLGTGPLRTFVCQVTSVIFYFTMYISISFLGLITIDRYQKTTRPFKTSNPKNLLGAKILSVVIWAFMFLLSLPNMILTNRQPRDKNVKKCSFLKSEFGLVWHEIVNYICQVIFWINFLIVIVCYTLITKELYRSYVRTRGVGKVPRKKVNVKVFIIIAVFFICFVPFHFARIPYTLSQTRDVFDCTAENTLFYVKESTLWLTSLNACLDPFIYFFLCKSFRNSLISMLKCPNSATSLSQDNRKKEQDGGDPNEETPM

| SMILES | IC50 [µM] |
| --- | --- |
| CCOC(=O)N1CCN(C(=O)[C@H](CP(=O)(OCOC(C)=O)OCOC(C)=O)NC(=O)c2cc(N3CC[C@H](OC)C3)nc(-c3ccccc3)n2)CC1 [Example 120, 4-((R)-3-[Bis-(acetoxy-methoxy)-phosphoryl]-2-{[6-((S)-3-methoxy-pyrrolidin-1-yl)-2-phenyl-pyrimidine-4-carbonyl]-amino}-propionyl)-piperazine-1-carboxylic acid ethyl ester] | 0.007 |
| CCCC(=O)OCOP(=O)(OCOC(=O)CCC)c1ccc(C[C@H](NC(=O)c2cc(N3CC[C@H](OC)C3)nc(-c3ccccc3)n2)C(=O)N2CCN(C(=O)OCC)CC2)cc1 [Example 124, 4-((S)-3-[4-(Bis-(butyryloxy-methoxy)-phosphoryl)-phenyl]-2-{[6-((S)-3-methoxy-pyrrolidin-1-yl)-2-phenyl-pyrimidine-4-carbonyl]-amino}-propionyl)-piperazine-1-carboxylic acid ethyl ester] | 0.036 |

— US8518912B2, “Phosphonic acid derivates and their use as P2Y12 receptor antagonists” (Actelion Pharmaceuticals Ltd., priority 2008, dated 2013)
